This assay has as its system P388 leukemia ip, CD2F1 mice, survival T/C. Nature of the assay: NCI In Vivo Anticancer Drug Screen. Data for tumor model P388 Leukemia (intraperitoneal) in CD2F1 (CDF1) mice. To be noted: endpoint: median survival time, higher = longer survival. The method, boiled down:
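Mice carrying the transplanted tumor received test compound or vehicle. Survival was recorded in each group, and the value is the treated-group measurement divided by that of the vehicle-treated control group.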

[1] abbreviates: dose: 50.0 mg/kg/injection, schedule: Q01DX009 (ip), vehicle: saline with Tween-80.
The mark [2] stands for this setting: dose: 100.0 mg/kg/injection, schedule: Q01DX009 (ip), vehicle: saline with Tween-80.
[3] abbreviates: dose: 200.0 mg/kg/injection, schedule: Q01DX009 (ip), vehicle: saline with Tween-80.
The mark [4] stands for this setting: dose: 25.0 mg/kg/injection, schedule: Q01DX009 (ip), vehicle: saline.
Setting [5] is: dose: 50.0 mg/kg/injection, schedule: Q01DX009 (ip), vehicle: saline.
Where [6] appears, read: dose: 100.0 mg/kg/injection, schedule: Q01DX009 (ip), vehicle: saline.
Setting [7] is: dose: 12.5 mg/kg/injection, schedule: Q01DX009 (ip), vehicle: saline.
Where [8] appears, read: dose: 6.25 mg/kg/injection, schedule: Q01DX009 (ip), vehicle: saline with Tween-80.
[9] abbreviates: dose: 12.5 mg/kg/injection, schedule: Q01DX009 (ip), vehicle: saline with Tween-80.
Where [10] appears, read: dose: 25.0 mg/kg/injection, schedule: Q01DX009 (ip), vehicle: saline with Tween-80.

Values joined by “and” are separate entries in the source; they are usually repeats but may differ in a detail not shown here. Equal entries are not always repeated. Inconclusive results and toxic doses are left out.

Turning to `Clc1ccc(CN2COc3c(ccc4cccnc34)C2)c(Cl)c1`, the T/C (dose: 100.0 mg/kg/injection, schedule: Q04DX003 (ip), vehicle: Klucel (hydroxypropylcellulose) (HPC)) was 95 % of control; the T/C (dose: 200.0 mg/kg/injection, schedule: Q04DX003 (ip), vehicle: Klucel (hydroxypropylcellulose) (HPC)) was 104 % of control; the T/C (dose: 400.0 mg/kg/injection, schedule: Q04DX003 (ip), vehicle: Klucel (hydroxypropylcellulose) (HPC)) is 117 % of control.

For `CSC(=S)n1nc(-c2ccccc2)c(N=Nc2ccccc2[N+](=O)[O-])c1C`, the T/C is 98 % of control (dose: 100.0 mg/kg/injection, schedule: Q01DX001 (ip), vehicle: Klucel (hydroxypropylcellulose) (HPC)); 102 % of control (dose: 200.0 mg/kg/injection, schedule: Q01DX001 (ip), vehicle: Klucel (hydroxypropylcellulose) (HPC)); 103 % of control (dose: 400.0 mg/kg/injection, schedule: Q01DX001 (ip), vehicle: Klucel (hydroxypropylcellulose) (HPC)).

As to `CC(F)C(C)C(N)C(=O)O` (centres undefined), the T/C is, setting by setting: under setting [1], 86 % of control; under setting [2], 91 % of control; under setting [3], 99 % of control.

As to `O=C(OCN1C(=O)C2C3C=CC(C2C1=O)C1C2C(=O)N(COC(=O)C4CCCN4)C(=O)C2C31)C1CCCN1` (centres undefined), the T/C reads like this: under setting [4], 105 % of control and 108 % of control; under setting [5], 108 % of control; under setting [6], 162 % of control and 205 % of control.

Regarding `CCCSP(=S)(c1ccc(Cl)cc1)c1ccc(Cl)cc1`, the T/C runs as follows: (dose: 100.0 mg/kg/injection, schedule: Q04DX002 (ip), vehicle: saline) 106 % of control; (dose: 200.0 mg/kg/injection, schedule: Q04DX002 (ip), vehicle: saline) 103 % of control; (dose: 400.0 mg/kg/injection, schedule: Q04DX002 (ip), vehicle: saline) 103 % of control.

Consider `Cc1cc[n+](C)c2ccccc12`, for which the T/C reads like this: (dose: 9.37 mg/kg/injection, schedule: Q01DX009 (ip), vehicle: saline with Tween-80) 109 % of control; (dose: 18.75 mg/kg/injection, schedule: Q01DX009 (ip), vehicle: saline with Tween-80) 100 % of control; (dose: 37.5 mg/kg/injection, schedule: Q01DX009 (ip), vehicle: saline with Tween-80) 104 % of control.

Regarding `O=C(O)C(O)C(O)C(=O)O.O=C(O)C(O)C(O)C(=O)O.[O]=[V].[O]=[V]` (centres undefined), the T/C under setting [7] was 110 % of control; the T/C (dose: 15.0 mg/kg/injection, schedule: Q01DX009 (ip), vehicle: saline) was 102 % of control; the T/C under setting [4] is 110 % of control; the T/C (dose: 25.0 mg/kg/injection, schedule: Q04DX003 (ip), vehicle: saline sonified) was 100 % of control; the T/C (dose: 30.0 mg/kg/injection, schedule: Q01DX009 (ip), vehicle: saline) was 106 % of control; the T/C (dose: 50.0 mg/kg/injection, schedule: Q04DX003 (ip), vehicle: saline sonified) is 104 % of control.

With `Cc1ccc(N=CN(C)C)c(Cl)c1`, the T/C runs as follows: (dose: 12.5 mg/kg/injection, schedule: Q04DX003 (ip), vehicle: Klucel (hydroxypropylcellulose) (HPC)) 103 % of control; (dose: 25.0 mg/kg/injection, schedule: Q04DX003 (ip), vehicle: Klucel (hydroxypropylcellulose) (HPC)) 101 % of control.

For `CCC[CH2][Sn]([CH2]CCC)([CH2]CCC)[CH2]CC[N+](C)(C)C.CS(=O)(=O)[O-]`, the T/C was 100 % of control (dose: 0.78 mg/kg/injection, schedule: Q01DX009 (ip), vehicle: saline); 101 % of control (dose: 1.56 mg/kg/injection, schedule: Q01DX009 (ip), vehicle: saline); 98 % of control (dose: 3.12 mg/kg/injection, schedule: Q01DX009 (ip), vehicle: saline).

Consider `c1ccc(N2CCN(C(c3cccs3)N3CCN(c4ccccc4)CC3)CC2)cc1`, for which the T/C is, setting by setting: (dose: 60.0 mg/kg/injection, schedule: Q01DX005 (ip), vehicle: saline with Tween-80) 100 % of control; (dose: 120.0 mg/kg/injection, schedule: Q01DX005 (ip), vehicle: saline with Tween-80) 99 % of control.

Take `Fc1ccc(N=Cc2cccs2)cc1`: the T/C runs as follows: (dose: 50.0 mg/kg/injection, schedule: Q01DX009 (ip), vehicle: Klucel (hydroxypropylcellulose) (HPC)) 110 % of control; (dose: 100.0 mg/kg/injection, schedule: Q01DX009 (ip), vehicle: Klucel (hydroxypropylcellulose) (HPC)) 107 % of control; (dose: 200.0 mg/kg/injection, schedule: Q01DX009 (ip), vehicle: Klucel (hydroxypropylcellulose) (HPC)) 110 % of control.

With `CC(=O)Nc1ccc(S(=O)(=O)NC(C)=O)cc1`, the T/C is 100 % of control under setting [7], 98 % of control under setting [4], 108 % of control under setting [5] and 100 % of control under setting [6].

Consider `C[C@@]1(N=Cc2ccccc2)C(=O)NC(=O)C2=CN(Cc3ccccc3)C=C[C@@H]21`, for which the T/C (dose: 50.0 mg/kg/injection, schedule: Q01DX005 (ip), vehicle: Klucel (hydroxypropylcellulose) (HPC)) is 102 % of control; the T/C (dose: 100.0 mg/kg/injection, schedule: Q01DX005 (ip), vehicle: Klucel (hydroxypropylcellulose) (HPC)) is 99 % of control; the T/C (dose: 200.0 mg/kg/injection, schedule: Q01DX005 (ip), vehicle: Klucel (hydroxypropylcellulose) (HPC)) is 89 % of control.

Regarding `CC1OCN2C(C)CCCC12` (centres undefined), the T/C reads like this: (dose: 50.0 mg/kg/injection, schedule: Q01DX005 (ip), vehicle: saline) 108 % of control; (dose: 100.0 mg/kg/injection, schedule: Q01DX005 (ip), vehicle: saline) 106 % of control.

As to `NC(=S)N/N=C/c1ccc(OC(=O)COc2ccc(Cl)cc2)cn1`, the T/C is 118 % of control (dose: 3.12 mg/kg/injection, schedule: Q01DX009 (ip), vehicle: saline with Tween-80); 159 % of control under setting [8]; 156 % of control and 157 % of control under setting [9]; 184 % of control under setting [10]; 188 % of control and 189 % of control under setting [1]; 225 % of control and 88 % of control under setting [2]. Besides, under setting [3], the T/C was 86 % of control.

Turning to `C/C=C/COc1ccccc1C=O`, the T/C is 99 % of control under setting [5]; 106 % of control under setting [6]; 100 % of control (dose: 200.0 mg/kg/injection, schedule: Q01DX009 (ip), vehicle: saline).

As for `CC[C@@]1(O)C[C@H](OC2CC(N(C)C)C(OC3CC(O)C(O[C@@H]4O[C@@H](C)C(=O)C=C4N)C(C)O3)C(C)O2)c2c(cc3c(c2O)C(=O)c2c(O)ccc(O)c2C3=O)[C@H]1C(=O)OC` (some centres undefined), the T/C (dose: 0.19 mg/kg/injection, schedule: Q01DX009 (ip), vehicle: saline) was 150 % of control; the T/C (dose: 0.38 mg/kg/injection, schedule: Q01DX009 (ip), vehicle: saline with Tween-80) was 161 % of control; the T/C (dose: 0.75 mg/kg/injection, schedule: Q01DX009 (ip), vehicle: saline with Tween-80) was 175 % of control; the T/C (dose: 0.75 mg/kg/injection, schedule: Q01DX009 (ip), vehicle: saline) is 163 % of control; the T/C (dose: 1.5 mg/kg/injection, schedule: Q01DX009 (ip), vehicle: saline with Tween-80) is 89 % of control; the T/C (dose: 1.5 mg/kg/injection, schedule: Q01DX009 (ip), vehicle: saline) is 182 % of control. The T/C (dose: 3.0 mg/kg/injection, schedule: Q01DX009 (ip), vehicle: saline) is 94 % of control; the T/C (dose: 1.0 micrograms/kg/injection, schedule: Q01DX005 (ip), vehicle: Klucel (hydroxypropylcellulose) (HPC)) was 102 % of control; the T/C (dose: 2.0 micrograms/kg/injection, schedule: Q01DX005 (ip), vehicle: Klucel (hydroxypropylcellulose) (HPC)) is 106 % of control; the T/C (dose: 4.0 micrograms/kg/injection, schedule: Q01DX005 (ip), vehicle: Klucel (hydroxypropylcellulose) (HPC)) was 102 % of control; the T/C (dose: 8.0 micrograms/kg/injection, schedule: Q01DX005 (ip), vehicle: Klucel (hydroxypropylcellulose) (HPC)) was 102 % of control.

As for `O=C1O/C(=C2/OC(=O)c3ccccc32)c2ccccc21`, the T/C (dose: 3.13 mg/kg/injection, schedule: Q01DX009 (ip), vehicle: saline with Tween-80) is 94 % of control; the T/C under setting [8] was 100 % of control; the T/C under setting [9] was 100 % of control and 91 % of control; the T/C under setting [10] was 100 % of control; the T/C under setting [1] was 88 % of control; the T/C under setting [2] was 88 % of control. The T/C is, setting by setting: under setting [3], 90 % of control; (dose: 400.0 mg/kg/injection, schedule: Q01DX009 (ip), vehicle: saline with Tween-80) 92 % of control.

`COC(=O)/C=C1\C[C@H]2C[C@]3(O)O[C@H](C[C@@H](O)CC(=O)O[C@@H]([C@@H](C)O)C[C@@H]4C/C(=C\C(=O)OC)[C@H](OC(C)=O)[C@@](O)(O4)C(C)(C)/C=C/[C@@H](C1)O2)C[C@H](OC(=O)CC(C)C)C3(C)C`: the T/C runs as follows: (dose: 3.0 micrograms/kg/injection, schedule: Q01DX009 (ip), vehicle: saline + alcohol) 111 % of control; (dose: 5.0 micrograms/kg/injection, schedule: Q01DX009 (ip), vehicle: saline + alcohol) 113 % of control.

For the origin of these results see PubChem BioAssay AID330 (DTP/NCI, 2004).
